Experimental data taken from US4867737A, “Derivatives of 4-phenyl-4-oxo-2-butenoic acid their preparation process, their use as medicaments and compositions containing them” (Roussel UCLAF, priority 1986, dated 1989).

Assays:
[1] = test system: total acidity of the gastric secretions; experiment: Anti-gastric secretory activity (pylorus ligature, Shay technique); type: in vivo, rat; conditions: male rats, intraduodenal, 10 mg/kg, 3 hours
Experimental: (1) Determination of the anti-gastric secretory activity.
The technique used is described by H. SHAY et al in Gastroenterology 5, 43, 1945.
Male rats are used weighing about 200 g (10 animals per group), deprived of nourishment for 48 hours, but having as much as desired of an 8% glucose solution. The pylorus of the rats is ligatured, the rats having been lightly anesthetized with ether. Then, at the end of the operation, the compounds under test are administered at various doses, or for the control animals, a 0.5% carboxymethyl cellulose solution is administered by intraduodenal route. Then the abdominal incision is sutured.
Three hours later, the animals are killed and their stomachs are removed after ligature of the oesophagus. The gastric juice is removed and centrifuged. Then the volume is measured; and on 100 μl of gastric juice, the total acidity is determined by titration at pH 7 with N/10 sodium hydroxide.
The percentages of variation of total acidity of the gastric secretions are calculated in relation to the results obtained with the control animals.

[2] = test system: ulcers in the stomachs of the rats; experiment: Anti-ulcer activity, ulcer from stress (constraint and cold); type: in vivo, rat; conditions: female rats, by probang, 10 mg/kg
Experimental: (2) Determination of anti-ulcer activity
The technique consists of inducing ulcers in the stomachs of the rats through stress (constraint and cold.)
The technique used is described by E. C. SENAY and R. J. LEVINE, Proc. Soc. Exp. Biol. 124, 1221 (1967).
Female rats weighing 150 g are used (5 animals per group), starved for 48 hours with water "ad libitum" and glucose solution for 8 hours. The animals receive the product under test by a probang, or the control animals receive a 0.5% carboxymethyl cellulose solution.
Two hours later, the animals are wrapped up in a wire-netting jacket, their paws are bound and the whole is placed in a refrigerator at 8° C. for two hours. The rats are freed and killed with ether.
Their stomachs are removed, opened along the greater curvature and examined by means of a binocular magnifier; the seriousness of the lesions is rated from 0 to 3 for each stomach.
For each group of rats the average intensity of the ulcerations is calculated, then for each group the degree of ulceration in relation to the controls is determined.
Product 1 is the product of Example 1; Product p is the product of Example 1 of U.S. Pat. No. 4,473,583.

[3] = Acute toxicity (LD50), oral route; conditions: in vivo, mouse
Experimental: (3) Determination of actute toxicity
The lethal dose 50 (LD50) was evaluated after administration of the products by oral route to a mouse.

SMILES	Anti-secretory activity: Acid Concentration (% variation in relation to the controls) [1] [%]	Anti-ulcer activity: Ulceration (% variation in relation to the controls) [2] [%]	LD50 [3] [mg/kg]
COc1ccccc1C(=O)/C=C/C(=O)O [Product 1, (E) 4-(2-methoxyphenyl)-4-oxo-2-butenoic acid]	-78	-80	370
O=C(O)C=CC(=O)c1ccccc1 [p]	-66	-54	250
